The values below come from ChEMBL document CHEMBL5291721, “A preclinical secondary pharmacology resource illuminates target-adverse drug reaction associations of marketed drugs” (Nat Commun, 2023).

For experiment [1], the target named is 5-hydroxytryptamine receptor 2B (Homo sapiens, UniProt P41595).
Experiment [2] concerns the target T1, Estrogen receptor (Homo sapiens, UniProt P03372).
T1 sequence (P03372 whole entry): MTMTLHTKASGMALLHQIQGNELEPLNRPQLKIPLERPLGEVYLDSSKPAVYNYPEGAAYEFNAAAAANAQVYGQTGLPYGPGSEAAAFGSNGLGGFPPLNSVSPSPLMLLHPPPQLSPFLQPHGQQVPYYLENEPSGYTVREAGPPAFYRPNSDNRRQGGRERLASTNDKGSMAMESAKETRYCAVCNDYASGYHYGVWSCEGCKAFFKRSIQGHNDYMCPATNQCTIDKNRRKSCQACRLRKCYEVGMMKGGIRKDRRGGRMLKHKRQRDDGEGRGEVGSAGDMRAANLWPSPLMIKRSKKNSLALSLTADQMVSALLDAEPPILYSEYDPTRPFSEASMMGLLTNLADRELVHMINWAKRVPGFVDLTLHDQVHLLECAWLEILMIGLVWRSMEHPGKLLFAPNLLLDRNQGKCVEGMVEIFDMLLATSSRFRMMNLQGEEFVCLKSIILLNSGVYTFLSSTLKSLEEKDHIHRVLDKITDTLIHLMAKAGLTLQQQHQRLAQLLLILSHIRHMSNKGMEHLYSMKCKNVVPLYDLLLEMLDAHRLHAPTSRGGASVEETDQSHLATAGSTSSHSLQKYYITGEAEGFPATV
The format is functional.

In another experiment the target is T2, Androgen receptor (Homo sapiens, UniProt P10275).
T2 sequence (P10275 whole entry): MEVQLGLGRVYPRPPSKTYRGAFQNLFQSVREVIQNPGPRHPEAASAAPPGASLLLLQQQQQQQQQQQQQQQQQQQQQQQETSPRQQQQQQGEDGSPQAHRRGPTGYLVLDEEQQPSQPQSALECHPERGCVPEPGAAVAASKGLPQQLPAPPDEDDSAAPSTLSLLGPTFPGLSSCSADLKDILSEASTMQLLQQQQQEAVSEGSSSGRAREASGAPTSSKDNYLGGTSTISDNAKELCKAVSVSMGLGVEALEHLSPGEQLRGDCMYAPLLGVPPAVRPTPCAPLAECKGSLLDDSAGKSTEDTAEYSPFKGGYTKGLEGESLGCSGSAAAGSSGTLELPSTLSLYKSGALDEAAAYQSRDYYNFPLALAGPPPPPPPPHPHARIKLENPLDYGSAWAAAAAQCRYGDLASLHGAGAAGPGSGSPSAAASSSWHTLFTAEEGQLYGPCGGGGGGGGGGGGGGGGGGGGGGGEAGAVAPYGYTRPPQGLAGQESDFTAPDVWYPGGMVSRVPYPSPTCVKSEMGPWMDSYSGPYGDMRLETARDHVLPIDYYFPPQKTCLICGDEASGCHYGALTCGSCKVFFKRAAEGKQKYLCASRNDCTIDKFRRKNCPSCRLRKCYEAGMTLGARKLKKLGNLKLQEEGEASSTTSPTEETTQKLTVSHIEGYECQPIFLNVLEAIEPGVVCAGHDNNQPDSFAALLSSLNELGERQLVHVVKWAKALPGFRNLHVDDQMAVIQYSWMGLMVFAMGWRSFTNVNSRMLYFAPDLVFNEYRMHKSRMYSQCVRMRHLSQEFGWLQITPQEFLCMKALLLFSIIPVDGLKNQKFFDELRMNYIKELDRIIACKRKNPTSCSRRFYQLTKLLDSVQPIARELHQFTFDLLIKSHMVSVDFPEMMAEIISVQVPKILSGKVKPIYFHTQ

Experiment [3] deals with Sodium-dependent dopamine transporter (Homo sapiens, UniProt Q01959).
Sequence of Sodium-dependent dopamine transporter (Q01959 whole entry): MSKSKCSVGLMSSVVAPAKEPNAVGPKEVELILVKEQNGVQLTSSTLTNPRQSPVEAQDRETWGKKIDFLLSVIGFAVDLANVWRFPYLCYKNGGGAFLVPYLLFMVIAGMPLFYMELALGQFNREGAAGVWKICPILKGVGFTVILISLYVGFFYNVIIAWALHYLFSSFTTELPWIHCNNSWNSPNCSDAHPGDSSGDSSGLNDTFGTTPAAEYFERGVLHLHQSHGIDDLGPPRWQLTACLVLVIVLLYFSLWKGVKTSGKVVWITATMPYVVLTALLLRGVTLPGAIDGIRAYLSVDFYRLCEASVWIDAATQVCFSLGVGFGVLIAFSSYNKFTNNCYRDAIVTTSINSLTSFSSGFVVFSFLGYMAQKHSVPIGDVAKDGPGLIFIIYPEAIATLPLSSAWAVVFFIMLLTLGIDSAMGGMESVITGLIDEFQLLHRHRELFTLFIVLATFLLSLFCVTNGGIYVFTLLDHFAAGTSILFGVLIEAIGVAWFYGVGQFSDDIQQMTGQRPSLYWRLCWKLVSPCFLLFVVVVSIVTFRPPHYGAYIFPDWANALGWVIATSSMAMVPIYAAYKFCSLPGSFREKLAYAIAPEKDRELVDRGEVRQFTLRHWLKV
Experiment [4] concerns the target T3, Muscarinic acetylcholine receptor M2 (Homo sapiens, UniProt P08172).
T3 sequence (P08172 whole entry): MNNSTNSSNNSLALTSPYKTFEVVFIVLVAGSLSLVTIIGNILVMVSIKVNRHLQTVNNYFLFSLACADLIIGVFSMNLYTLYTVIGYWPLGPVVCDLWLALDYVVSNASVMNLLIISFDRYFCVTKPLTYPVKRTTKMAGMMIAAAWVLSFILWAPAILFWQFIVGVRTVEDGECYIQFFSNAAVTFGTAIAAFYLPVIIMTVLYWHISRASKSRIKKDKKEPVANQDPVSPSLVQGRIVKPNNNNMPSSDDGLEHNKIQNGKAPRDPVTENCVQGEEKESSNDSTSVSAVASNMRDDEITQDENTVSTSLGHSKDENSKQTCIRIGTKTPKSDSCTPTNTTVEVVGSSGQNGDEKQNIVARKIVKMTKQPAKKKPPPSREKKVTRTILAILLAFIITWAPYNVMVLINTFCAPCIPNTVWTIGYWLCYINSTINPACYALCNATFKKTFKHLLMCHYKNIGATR

Experiment [5] addresses T1, Estrogen receptor.
For experiment [6], the target named is T4, Amine oxidase [flavin-containing] A (Homo sapiens, UniProt P21397).
T4 sequence (P21397 whole entry): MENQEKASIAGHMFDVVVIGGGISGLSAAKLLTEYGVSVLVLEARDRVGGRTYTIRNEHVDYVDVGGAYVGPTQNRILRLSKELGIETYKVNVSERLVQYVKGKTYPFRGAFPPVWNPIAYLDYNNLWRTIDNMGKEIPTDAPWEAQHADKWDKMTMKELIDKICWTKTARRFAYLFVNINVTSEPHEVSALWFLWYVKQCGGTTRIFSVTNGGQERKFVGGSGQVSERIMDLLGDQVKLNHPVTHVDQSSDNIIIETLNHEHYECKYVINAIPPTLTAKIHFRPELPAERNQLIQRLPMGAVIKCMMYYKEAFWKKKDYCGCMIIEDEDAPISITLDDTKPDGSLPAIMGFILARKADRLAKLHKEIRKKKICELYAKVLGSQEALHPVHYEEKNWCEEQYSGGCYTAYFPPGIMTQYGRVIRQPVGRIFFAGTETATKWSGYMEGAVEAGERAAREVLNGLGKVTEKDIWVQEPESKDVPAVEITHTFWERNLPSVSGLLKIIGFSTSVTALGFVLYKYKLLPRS
In kind it is functional.

The target in experiment [7] is Sodium-dependent noradrenaline transporter (Homo sapiens, UniProt P23975).
Sequence of Sodium-dependent noradrenaline transporter (P23975 whole entry): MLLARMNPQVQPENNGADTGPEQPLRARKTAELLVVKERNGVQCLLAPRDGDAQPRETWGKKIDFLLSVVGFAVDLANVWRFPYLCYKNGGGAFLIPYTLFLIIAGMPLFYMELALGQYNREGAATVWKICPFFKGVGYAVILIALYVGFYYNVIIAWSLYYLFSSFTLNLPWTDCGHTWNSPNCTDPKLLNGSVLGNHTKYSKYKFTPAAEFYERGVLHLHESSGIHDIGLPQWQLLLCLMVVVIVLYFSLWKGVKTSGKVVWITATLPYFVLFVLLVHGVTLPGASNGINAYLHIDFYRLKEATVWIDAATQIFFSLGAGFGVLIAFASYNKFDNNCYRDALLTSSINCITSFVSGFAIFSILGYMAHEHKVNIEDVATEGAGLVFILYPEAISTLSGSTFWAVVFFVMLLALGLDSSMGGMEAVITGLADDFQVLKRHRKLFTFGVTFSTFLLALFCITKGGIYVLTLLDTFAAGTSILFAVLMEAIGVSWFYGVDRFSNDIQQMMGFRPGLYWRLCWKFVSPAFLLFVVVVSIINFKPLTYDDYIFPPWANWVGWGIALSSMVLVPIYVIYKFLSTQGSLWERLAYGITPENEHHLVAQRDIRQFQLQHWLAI
A further experiment addresses D(1A) dopamine receptor (Homo sapiens, UniProt P21728).
The target in experiment [8] is 3',5'-cyclic-AMP phosphodiesterase 4A (Homo sapiens, UniProt P27815). In kind it is functional.
Sequence of 3',5'-cyclic-AMP phosphodiesterase 4A (P27815 whole entry): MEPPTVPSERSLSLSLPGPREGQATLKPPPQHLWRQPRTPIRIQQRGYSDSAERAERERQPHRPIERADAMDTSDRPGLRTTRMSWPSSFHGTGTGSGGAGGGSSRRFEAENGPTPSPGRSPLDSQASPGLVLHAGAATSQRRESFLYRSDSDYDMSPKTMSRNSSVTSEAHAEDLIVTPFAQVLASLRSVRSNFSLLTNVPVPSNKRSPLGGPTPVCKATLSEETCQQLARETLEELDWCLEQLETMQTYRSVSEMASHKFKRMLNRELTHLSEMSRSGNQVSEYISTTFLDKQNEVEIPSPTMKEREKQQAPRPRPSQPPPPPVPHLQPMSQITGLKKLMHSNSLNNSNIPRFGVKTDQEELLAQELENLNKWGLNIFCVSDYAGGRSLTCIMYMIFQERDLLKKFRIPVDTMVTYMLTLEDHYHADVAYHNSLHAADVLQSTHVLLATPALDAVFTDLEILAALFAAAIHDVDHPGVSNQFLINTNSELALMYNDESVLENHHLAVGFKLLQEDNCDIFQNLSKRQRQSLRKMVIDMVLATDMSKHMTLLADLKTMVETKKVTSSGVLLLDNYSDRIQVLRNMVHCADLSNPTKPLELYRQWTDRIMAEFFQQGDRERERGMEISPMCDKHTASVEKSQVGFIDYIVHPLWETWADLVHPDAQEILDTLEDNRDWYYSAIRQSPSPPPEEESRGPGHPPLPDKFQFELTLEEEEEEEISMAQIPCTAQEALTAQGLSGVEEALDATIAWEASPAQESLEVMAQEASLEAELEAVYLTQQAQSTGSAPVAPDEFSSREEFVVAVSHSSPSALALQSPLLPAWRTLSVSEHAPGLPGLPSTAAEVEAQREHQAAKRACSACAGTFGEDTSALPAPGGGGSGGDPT
A further experiment has as its target Prothrombin (Homo sapiens, UniProt P00734). The format is functional.

Each structure is given as a SMILES string.
Note: assay procedure not described here.

Sequence of D(1A) dopamine receptor (P21728 whole entry): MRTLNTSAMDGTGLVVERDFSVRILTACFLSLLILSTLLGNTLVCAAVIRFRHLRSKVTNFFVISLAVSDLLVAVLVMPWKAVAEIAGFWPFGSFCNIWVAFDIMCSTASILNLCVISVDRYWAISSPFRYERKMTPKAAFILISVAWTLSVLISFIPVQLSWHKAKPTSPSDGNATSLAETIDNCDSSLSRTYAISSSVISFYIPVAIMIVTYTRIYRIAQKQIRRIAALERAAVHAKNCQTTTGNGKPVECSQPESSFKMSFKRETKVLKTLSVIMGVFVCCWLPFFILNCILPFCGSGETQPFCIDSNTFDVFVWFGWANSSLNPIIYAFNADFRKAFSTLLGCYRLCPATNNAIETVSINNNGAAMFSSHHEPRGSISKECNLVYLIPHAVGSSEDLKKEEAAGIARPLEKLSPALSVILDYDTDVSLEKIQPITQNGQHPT
Sequence of 5-hydroxytryptamine receptor 2B (P41595 whole entry): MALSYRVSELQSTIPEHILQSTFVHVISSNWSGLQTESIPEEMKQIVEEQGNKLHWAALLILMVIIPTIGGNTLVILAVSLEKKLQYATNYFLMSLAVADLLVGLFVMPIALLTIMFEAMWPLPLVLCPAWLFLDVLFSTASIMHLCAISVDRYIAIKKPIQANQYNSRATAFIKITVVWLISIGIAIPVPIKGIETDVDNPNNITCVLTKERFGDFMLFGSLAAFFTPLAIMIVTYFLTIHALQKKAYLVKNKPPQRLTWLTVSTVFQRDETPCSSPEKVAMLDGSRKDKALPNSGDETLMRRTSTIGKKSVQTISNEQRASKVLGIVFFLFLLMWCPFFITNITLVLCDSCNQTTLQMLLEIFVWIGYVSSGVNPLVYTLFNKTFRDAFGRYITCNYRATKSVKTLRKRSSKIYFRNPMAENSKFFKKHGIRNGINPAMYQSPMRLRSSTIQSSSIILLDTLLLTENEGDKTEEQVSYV

Turning to `Fc1ccc([C@@H]2CCNC[C@H]2COc2ccc3c(c2)OCO3)cc1` [PAROXETINE], in [1], the AC50 (in general, the concentration giving half of the maximal activity seen) came to 10.6 µM.

On to `CCOC(=O)[C@@H](N)Cc1ccc(-c2cc(O[C@H](c3ccc(Cl)cc3-n3ccc(C)n3)C(F)(F)F)nc(N)n2)cc1` [TELOTRISTAT ETHYL], for which the AC50 at Estrogen receptor [2] was greater than 30 µM.

As to `CCN(CC)CCCC(C)Nc1c2ccc(Cl)cc2nc2ccc(OC)cc12` (stereo unspecified) [QUINACRINE], the concentration at half-maximal activity (AC50) at Androgen receptor is greater than 30 µM; in experiment [3] it was 18.4 µM; in experiment [4] it was 0.768 µM; on Estrogen receptor [5], greater than 30 µM; in experiment [6], greater than 30 µM; in [7], 6.92 µM. The values for the concentration at half-maximal activity (AC50) (at D(1A) dopamine receptor; in [8]; at Prothrombin) were 12.3 µM, greater than 10 µM and greater than 30 µM, respectively.
